Experimental findings from patent US20230220021A1, “CYCLIC PEPTIDE INHIBITORS OF PSD-95 AND USES THEREOF” (University of Copenhagen, priority 2020, published 2023) are described below.

Usually Kd stands for the equilibrium constant for the complex coming apart. The term Ki denotes a measure of affinity in units of concentration, obtained from inhibition or displacement.

Where two headings read alike, the source gives them in different places. Where a SMILES comes first, the peptide text is derived from it. Where no end group is shown, it is not given here. [ ]: non-standard residue; d: D form.

Assay type in all cases: binding
Assay [1] has as its target T1, PSD-95-PDZ2 (Homo sapiens, UniProt P78352).
T1 construct: 7xHis (N); made in house; host or cells: Escherichia coli B21 pLys (for the mutants, 'as previously described')
In words: Isothermal titration calorimetry (ITC). The conditions noted are these: for fold improved binding affinity compared to the wild-type peptide: ITC Kd. (In general: In ITC the heat of successive injections is recorded.)
Protocol: Isothermal titration calorimetry (ITC). The ITC assays were performed in NaPi 50 nM, 50 nM NaCl, pH 7.2 buffer filtered with a Corning® bottle-top vacuum filter system of a pore size of 0.22 μM, that was used to dissolve the peptides. Proteins were dialyzed against this buffer using Amicon® Ultra-15 centrifugal filter units, with a MWCO 3000 Da.
This assay was performed on an ITC200. The instrument differential power (DP) was set to 10 and the syringe rotating speed to 600 RPM. The assay setup consisted of introducing the protein inside the cell and the peptide (titrant) on the syringe. Calorimetry was performed at 25° C. Each analysis was performed in triplicates. Furthermore, several runs of peptide into buffer were performed in order to remove injection residual heat. Runs were analyzed with Origin 7.0 software (OriginLab).

In assay [2] the target is T2, PSD-95-PDZ2 (Homo sapiens, UniProt P78352, V178C).
T2 construct: screened with the TAMRA labelled PSD-95-PDZ2-V178C domain; 7xHis (N); made in house
Briefly: SPOT peptide array screening with TAMRA labelled PSD-95-PDZ2. The conditions noted are these: for Normalized SPOT fluorescence (Mut/WT): SPOT array, TAMRA labelled PSD-95-PDZ2-V178C, normalized to WT. The gist of the method: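 First, arrays were blocked 1 h and scanned to record background. Next, 50 nM labelled PDZ2-V178C in PBS pH 7.2 with 0.5% BSA bound for 1 h protected from light. Finally, after washes, 532 nm fluorescence was measured and background-corrected.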

Assay [3] has as its target T1, PSD-95-PDZ2. In words: Fluorescence polarization (FP) competition assay against cyclic nNOS TAMRA probe. Conditions: for Relative Ki (Ki mut/Ki WT): FP inhibition constant normalized to WT value; for Ki: FP competition, cyclic nNOS TAMRA probe, mean of triplicates, N.B. = not binding, read-out: Ki. (In general: In fluorescence polarisation assays a small probe gives low polarisation when free and higher when bound to something large.)

Consider `CC[C@H](C)[C@@H]1NC(=O)[C@H]([C@@H](C)O)NC(=O)[C@H](CCCCN)NC(=O)[C@@H]2CCCN2C(=O)[C@H](CCC(=O)O)NC(=O)CNC(=O)[C@H](CC(=O)O)NC(=O)CNC(=O)[C@H](Cc2c[nH]c3ccccc23)NC(=O)[C@H](Cc2ccccc2)NC(=O)[C@H]([C@@H](C)O)NC(=O)[C@H]([C@@H](C)O)NC(=O)[C@H](CCC(=O)O)NC(=O)[C@H](CC(C)C)NC(=O)[C@H](Cc2cncn2C)NC(=O)[C@H]([C@@H](C)O)NC(=O)[C@H](CCC(N)=O)NC(=O)CNC(=O)[C@H]2CCCN2C(=O)[C@H](CCC(N)=O)NC(=O)[C@H]([C@@H](C)O)NC(=O)[C@H](C(C)C)NC(=O)[C@H](CCCNC(=N)N)NC1=O` [SEQ ID NO: 16], for which, at PSD-95-PDZ2 [1], the “fold improved binding affinity compared to the wild-type peptide” value is listed as 75 fold.
“THLETTFTGDGTPKTIRVTQpGQE (THLETTFTGDGTPKTIRVTQ[dP]GQE) [SEQ ID NO: 137]”: the “affinity (Kd) by ITC” value with PSD-95-PDZ2 [1] (25° C., tested up to 100 μM) was “did not show binding”.
On to `CC[C@H](C)[C@@H]1NC(=O)[C@H]([C@@H](C)O)NC(=O)[C@H](CCCCN)NC(=O)[C@@H]2CCCN2C(=O)[C@H](CCC(=O)O)NC(=O)CNC(=O)[C@H](CC(=O)O)NC(=O)CNC(=O)[C@H](Cc2c[nH]c3ccccc23)NC(=O)[C@H](Cc2ccccc2)NC(=O)[C@H]([C@@H](C)O)NC(=O)[C@H]([C@@H](C)O)NC(=O)[C@H](CCC(=O)O)NC(=O)[C@H](CC(C)C)NC(=O)[C@H](Cc2cncn2C)NC(=O)[C@H]([C@@H](C)O)NC(=O)[C@H](CCC(N)=O)NC(=O)CNC(=O)[C@H]2CCCN2C(=O)[C@H](CCC(N)=O)NC(=O)[C@H]([C@@H](C)O)NC(=O)[C@H](C(C)C)NC(=O)[C@H](CCCNC(=N)N)NC1=O` [compound 16], for which, at PSD-95-PDZ2 [1] (ITC, 25° C.), the ΔH was -6.6378 ± 0.1229 kcal/mol and the “−ΔS*T” value is -3.6598 ± 0.239 kcal/mol.
Take `CC[C@H](C)[C@@H]1NC(=O)[C@H]([C@@H](C)O)NC(=O)[C@H](CCCCN)NC(=O)[C@@H]2CCCN2C(=O)[C@H]([C@@H](C)O)NC(=O)CNC(=O)[C@H](CC(=O)O)NC(=O)CNC(=O)[C@H]([C@@H](C)O)NC(=O)[C@H](Cc2ccccc2)NC(=O)[C@H]([C@@H](C)O)NC(=O)[C@H]([C@@H](C)O)NC(=O)[C@H](CCC(=O)O)NC(=O)[C@H](CC(C)C)NC(=O)[C@H](Cc2c[nH]cn2)NC(=O)[C@H]([C@@H](C)O)NC(=O)[C@H](CCC(N)=O)NC(=O)CNC(=O)[C@H]2CCCN2C(=O)[C@H](CCC(N)=O)NC(=O)[C@H]([C@@H](C)O)NC(=O)[C@H](C(C)C)NC(=O)[C@H](CCCNC(=N)N)NC1=O` [SEQ ID NO: 12]: the Kd on PSD-95-PDZ2 [1] (25° C., tested up to 100 μM, read-out: affinity (Kd) by ITC) was 2200 ± 300 nM.
For the compound `CC[C@H](C)[C@@H]1NC(=O)[C@H]([C@@H](C)O)NC(=O)[C@H](CCCCN)NC(=O)[C@@H]2CCCN2C(=O)[C@H](CCC(=O)O)NC(=O)CNC(=O)[C@H](CC(=O)O)NC(=O)CNC(=O)[C@H](Cc2c[nH]c3ccccc23)NC(=O)[C@H](Cc2ccccc2)NC(=O)[C@H]([C@@H](C)O)NC(=O)[C@H]([C@@H](C)O)NC(=O)[C@H](CCC(=O)O)NC(=O)[C@H](CC(C)C)NC(=O)[C@H](Cc2c[nH]cn2)NC(=O)[C@H]([C@@H](C)O)NC(=O)[C@H](CCC(N)=O)NC(=O)CNC(=O)[C@H]2CCCN2C(=O)[C@H](CCC(N)=O)NC(=O)[C@H]([C@@H](C)O)NC(=O)[C@H](C(C)C)NC(=O)[C@H](CCCNC(=N)N)NC1=O` [SEQ ID NO: 14] (cyclo(THLETTFWGDGEPKTIRVTQ[dP]GQ)), at PSD-95-PDZ2 [1], the “fold improved binding affinity compared to the wild-type peptide” value came to 16 fold.
In the case of `CC[C@H](C)[C@@H]1NC(=O)[C@H]([C@@H](C)O)NC(=O)[C@H](CCCCN)NC(=O)[C@@H]2CCCN2C(=O)[C@H]([C@@H](C)O)NC(=O)CNC(=O)[C@H](CC(=O)O)NC(=O)CNC(=O)[C@H](CCSC)NC(=O)[C@H](Cc2ccccc2)NC(=O)[C@H]([C@@H](C)O)NC(=O)[C@H]([C@@H](C)O)NC(=O)[C@H](CCC(=O)O)NC(=O)[C@H](CC(C)C)NC(=O)[C@H](Cc2c[nH]cn2)NC(=O)[C@H]([C@@H](C)O)NC(=O)[C@H](CCC(N)=O)NC(=O)CNC(=O)[C@H]2CCCN2C(=O)[C@H](CCC(N)=O)NC(=O)[C@H]([C@@H](C)O)NC(=O)[C@H](C(C)C)NC(=O)[C@H](CCCNC(=N)N)NC1=O` [compound 37], the “Normalized SPOT fluorescence (Mut/WT)” value on PSD-95-PDZ2 [2] is recorded as 2.00. In addition, at PSD-95-PDZ2 [3], the “Relative Ki (Ki mut/Ki WT)” value came out at 2.51.
For `CC[C@H](C)[C@@H]1NC(=O)[C@H]([C@@H](C)O)NC(=O)[C@H](CCCCN)NC(=O)[C@@H]2CCCN2C(=O)[C@H]([C@@H](C)O)NC(=O)CNC(=O)[C@H](CC(=O)O)NC(=O)CNC(=O)[C@H]([C@@H](C)O)NC(=O)[C@H](Cc2ccccc2)NC(=O)[C@H]([C@@H](C)O)NC(=O)[C@H]([C@@H](C)O)NC(=O)[C@H](CCC(=O)O)NC(=O)[C@H](CC(C)C)NC(=O)[C@H](Cc2c[nH]cn2)NC(=O)[C@H]([C@@H](C)O)NC(=O)[C@H](CCC(N)=O)NC(=O)CNC(=O)[C@H]2CCCN2C(=O)[C@H](CCC(N)=O)NC(=O)[C@H]([C@@H](C)O)NC(=O)[C@H](C)NC(=O)[C@H](CCCNC(=N)N)NC1=O` [compound 72] (cyclo(THLETTFTGDGTPKTIRATQ[dP]GQ)) the same measures were 0.09 and 1.49.
On to `CC[C@H](C)[C@@H]1NC(=O)[C@H]([C@@H](C)O)NC(=O)[C@H](CCCCN)NC(=O)[C@@H]2CCCN2C(=O)[C@H]([C@@H](C)O)NC(=O)CNC(=O)[C@H](CC(=O)O)NC(=O)CNC(=O)[C@H](C)NC(=O)[C@H](Cc2ccccc2)NC(=O)[C@H]([C@@H](C)O)NC(=O)[C@H]([C@@H](C)O)NC(=O)[C@H](CCC(=O)O)NC(=O)[C@H](CC(C)C)NC(=O)[C@H](Cc2c[nH]cn2)NC(=O)[C@H]([C@@H](C)O)NC(=O)[C@H](CCC(N)=O)NC(=O)CNC(=O)[C@H]2CCCN2C(=O)[C@H](CCC(N)=O)NC(=O)[C@H]([C@@H](C)O)NC(=O)[C@H](C(C)C)NC(=O)[C@H](CCCNC(=N)N)NC1=O` [compound 62] (cyclo(THLETTFAGDGTPKTIRVTQ[dP]GQ)), for which the “Normalized SPOT fluorescence (Mut/WT)” value at PSD-95-PDZ2 [2] is 0.97. Moreover, on PSD-95-PDZ2 [3], the “Relative Ki (Ki mut/Ki WT)” value is listed as 1.18.
Consider `CC[C@H](C)[C@@H]1NC(=O)[C@H]([C@@H](C)O)NC(=O)[C@H](CCCCN)NC(=O)[C@@H]2CCCN2C(=O)[C@H]([C@@H](C)O)NC(=O)CNC(=O)[C@H](CC(=O)O)NC(=O)CNC(=O)[C@H]([C@@H](C)O)NC(=O)[C@H](Cc2ccccc2)NC(=O)[C@H]([C@@H](C)O)NC(=O)[C@H]([C@@H](C)O)NC(=O)[C@H](CCC(=O)O)NC(=O)[C@H](CC(C)C)NC(=O)[C@H](C)NC(=O)[C@H]([C@@H](C)O)NC(=O)[C@H](CCC(N)=O)NC(=O)CNC(=O)[C@H]2CCCN2C(=O)[C@H](CCC(N)=O)NC(=O)[C@H]([C@@H](C)O)NC(=O)[C@H](C(C)C)NC(=O)[C@H](CCCNC(=N)N)NC1=O` [compound 56] (cyclo(TALETTFTGDGTPKTIRVTQ[dP]GQ)), for which, at PSD-95-PDZ2 [2], the “Normalized SPOT fluorescence (Mut/WT)” value was determined as 0.38. In addition, at PSD-95-PDZ2 [3], the “Relative Ki (Ki mut/Ki WT)” value worked out at 1.37.
Consider `CC[C@H](C)[C@@H]1NC(=O)[C@H]([C@@H](C)O)NC(=O)[C@H](CCCCN)NC(=O)[C@@H]2CCCN2C(=O)[C@H](CCC(=O)O)NC(=O)CNC(=O)[C@H](CC(=O)O)NC(=O)CNC(=O)[C@H](Cc2c[nH]c3ccccc23)NC(=O)[C@H](Cc2ccccc2)NC(=O)[C@H]([C@@H](C)O)NC(=O)[C@H]([C@@H](C)O)NC(=O)[C@H](CCC(=O)O)NC(=O)[C@H](CC(C)C)NC(=O)[C@H](Cc2c[nH]cn2)NC(=O)[C@H]([C@@H](C)O)NC(=O)[C@H](CCC(N)=O)NC(=O)CNC(=O)[C@H]2CCCN2C(=O)[C@H](CCC(N)=O)NC(=O)[C@H]([C@@H](C)O)NC(=O)[C@H](C(C)C)NC(=O)[C@H](CCCNC(=N)N)NC1=O` [compound 14] (cyclo(THLETTFWGDGEPKTIRVTQ[dP]GQ)), for which, at PSD-95-PDZ2 [1] (ITC, 25° C.), the ΔH is -7.208 ± 0.8381 kcal/mol and the “−ΔS*T” value is -2.1487 ± 0.759 kcal/mol. The Kd at PSD-95-PDZ2 [1] (ITC, 25° C., read-out: Kd) is 139 ± 18.2 nM. In addition, the “Average (fluorescence raw data)” value on PSD-95-PDZ2 [2] (non-proteogenic AA scan, Hit1(T112W T116E) peptide scaffold, SPOT array incubated with TAMRA-labelled PSD-95-PDZ2, average of Pep. 1-3) was 10.70 10^6. Further, at PSD-95-PDZ2 [2] (non-proteogenic AA scan, Hit1(T112W T116E) peptide scaffold, SPOT array incubated with TAMRA-labelled PSD-95-PDZ2, replicate peptide 1), the “Fluor. Pep. 1 (fluorescence raw data)” value is on record as 9.88 10^6. For the same compound, the “Fluor. Pep. 2 (fluorescence raw data)” value at PSD-95-PDZ2 [2] (non-proteogenic AA scan, Hit1(T112W T116E) peptide scaffold, SPOT array incubated with TAMRA-labelled PSD-95-PDZ2, replicate peptide 2) is recorded as 12.86 10^6. Moreover, at PSD-95-PDZ2 [2] (non-proteogenic AA scan, Hit1(T112W T116E) peptide scaffold, SPOT array incubated with TAMRA-labelled PSD-95-PDZ2, replicate peptide 3), the “Fluor. Pep. 3 (fluorescence raw data)” value was 9.36 10^6. Also, the Ki on PSD-95-PDZ2 [3] is 110 nM.
With `CC[C@H](C)[C@@H]1NC(=O)[C@H]([C@@H](C)O)NC(=O)[C@H](CCCCN)NC(=O)[C@@H]2CCCN2C(=O)[C@H]([C@@H](C)O)NC(=O)CNC(=O)[C@H](CC(=O)O)NC(=O)CNC(=O)[C@H](Cc2c[nH]cn2)NC(=O)[C@H](Cc2ccccc2)NC(=O)[C@H]([C@@H](C)O)NC(=O)[C@H]([C@@H](C)O)NC(=O)[C@H](CCC(=O)O)NC(=O)[C@H](CC(C)C)NC(=O)[C@H](Cc2c[nH]cn2)NC(=O)[C@H]([C@@H](C)O)NC(=O)[C@H](CCC(N)=O)NC(=O)CNC(=O)[C@H]2CCCN2C(=O)[C@H](CCC(N)=O)NC(=O)[C@H]([C@@H](C)O)NC(=O)[C@H](C(C)C)NC(=O)[C@H](CCCNC(=N)N)NC1=O` [compound 20] (cyclo(THLETTFHGDGTPKTIRVTQ[dP]GQ)), at PSD-95-PDZ2 [2], the “Normalized SPOT fluorescence (Mut/WT)” value was determined as 1.49. Moreover, at PSD-95-PDZ2 [3], the Ki was 1980 nM and the “Relative Ki (Ki mut/Ki WT)” value was 1.32.
